Patent US20100173018A1, “Microbicidal Compositions Including Activated Nitrogenous Compound and 1,4-Bis(Bromoacetoxy)-2-Butene, and Methods Of Using The Same” (BUCKMAN LABORATORIES INTERNATIONAL, INC., priority 2009, published 2010)
Entries after “also recorded” stand apart in the source; their conditions may differ.

Key:
[1] = cited from earlier work
[2] = tested on: Enterobacter aerogenes (ATCC 13048); assay: Evaluation of bactericidal activity (MIC, Bactometer impedance) with checkerboard synergy evaluation; format: cell-based; conditions: value <1 denotes synergistic activity
Protocol: A. Evaluation of Bactericidal Activity. This test method provides a technique for testing compounds for their effectiveness to control bacterial growth. MIC values represent the Minimum Inhibitory Concentration, defined as the lowest level of compound required to produce a 90% kill of a given organism.
Cell suspension from an 18 to 24 hour bacterial culture of Staphylococcus aureus (ATCC 6538) or Bacillus subtilis (ATCC 6633) or Enterobacter aerogenes (ATCC 13048) to attain a desired cell concentration. Using a McFarland nephelometer barium sulfate standard or some other suitable method, adjust the concentration of the bacterial suspension so that a final concentration of between 1×10^4 and 1×10^5 cells per ml is achieved when 100 μl of the inoculum is added to 5 ml of basal salts substrate. […]
• Bacterial growth in the tubes is measured by monitoring impedance levels on the Bactometer. • Dispense 1 ml aliquots of Modified WILKINS Chalgren Broth (Bactometer Media) into Bactometer wells; add 25 μl of treatment from the incubated tubes. […]
Synergy was measured by checkerboards dilutions (Yan and Hancock, 2001), in which one compound is diluted along the rows of test tubes and the other is diluted along the columns. […] The result is expressed as the Fractional Inhibitory Concentration Index (FIC), calculated as follows: […]

[3] = tested on: white water (ww) sample with a sulfite content of 12.8 ppm; assay: Synergism in the presence of sulfite: ATP measurement in white water, percent inhibition; format: cell-based; conditions: 10 min; BBAB 80 ppm active alone; ATP at 10 min; sulfite 12.8 ppm
Protocol: Synergism in the presence of sulfite. The effectiveness of the actives and the blend were evaluated in a white water (ww) sample with a sulfite content of 12.8 ppm. ATP measurements were performed in duplicate and percent inhibition calculated as a measure of antimicrobial efficacy. The raw data was converted to percent inhibition with use of the following formulation: % Inhibition=[(u−t)/u]×100 where: u=ATP value of untreated ww at time10 min t=ATP value of treated ww at time10 min.

[4] = tested on: filamentous bacteria isolate from a paper mill slime deposit (Flectobacillus species); assay: Synergy evaluation against filamentous bacteria (checkerboard, CFU on agar); format: cell-based
Protocol: Synergy evaluation against filamentous bacteria. The checkerboard method was used to determine the Fractional Inhibitory Index (FIC) as a predictor of synergy between Activated N-Compound and Busan 1210 (BBAB) against a pure isolate of filamentous bacteria cultured from a paper mill slime deposit. The isolate was identified by 16 S ribosomal RNA sequencing technique. Gene assembly and data analysis was performed using MicroSeq data analysis and identification software; the isolate was identified as a Flectobacillus species. Modified Basal Salts Buffer was inoculated with a suspension of the bacterial isolate to yield a final concentration of 1×10^5 cells per ml. Using a delay between additions, Busan 1210 (BBAB) was added 20 minutes prior to the addition of monochloramine (MCA). After a 3 hours exposure time, the treatments were sub-cultured onto Nutrient and Plate Count Agar (PCA) and incubated at 28° C. for 48 hours. The plates were examined for colony forming units (CFU) and compared to untreated control. [formula] Synergy is expressed as a Fractional inhibitory Concentration Index (FIC), calculated as follows: FIC=[A]/[a]+[B]/[b] where, [A] and [B]=MIC of the compounds A and B when in combination [a] and [b]=MIC of the compounds A and B when alone

Row | Structure (SMILES) | solubility in isopropenol, n-butenol, glycerol, ethylene glycol, propylene glycol, and diethylene glycol ([1]; alcohols and glycols as listed) | solubility in dimethylformamide and ethylene glycol monomethylether ([1]; dimethylformamide, ethylene glycol monomethylether) | solubility in water ([1]; water) | [A]/MICA + [B]/MICB (FIC index) [2] | inhibition at 80 ppm [3] [%] | FIC ([4]; FIC=[A]/[a]+[B]/[b]) | MIC of compound when alone ([a] / [b]) ([4]; alone, 3 hours exposure, sub-cultured 28° C. for 48 hours)
1 | O=C(CBr)OC/C=C\COC(=O)CBr [BBAB, 1,4-bis(bromoacetoxy)-2-butene] | soluble | soluble | extremely low; also recorded: water insoluble | 1.0 | 22.8 | – | –
2 | NCl [MCA, monochloramine] | – | – | – | – | – | 1.0 | 10.0(a)
